Experimental data taken from publication PMC2819846 (Mutation research, 2008).
Where “and” joins values, the source holds several entries; their conditions need not be identical. Equal entries are not always repeated. Where two headings read alike, the source gives them in different places.

Legend:
Salmonella = settings: cited from earlier work
Salmonella TA104 = assay: Salmonella plate-incorporation mutagenicity assay, strain TA104, with S9 mix; type: cell-based
Salmonella TA100 = assay: Salmonella plate-incorporation mutagenicity assay, strain TA100; type: cell-based
strain TA100 = type: cell-based, Salmonella; settings: TA100 liquid-suspension; for Rev/10^6 survivors: DMSO 0.8; for Percent survival: DMSO 100
Salmonella TA98 = assay: Salmonella plate-incorporation mutagenicity assay, strain TA98, with S9 mix; type: cell-based
[1] = system: DNA from Salmonella TA100; assay: Stable DNA adducts by 32P-postlabeling in DNA of treated TA100; type: cell-based; settings: DMSO 0.024 ± 0.000
[2] = system: DNA from Salmonella TA100; assay: Abasic sites by aldehydic-site assay in DNA of treated TA100; type: cell-based; settings: DMSO 5.9 ± 0.33

In the case of `c1ccc2c(c1)ccc1cc3c(cc12)sc1ccccc13` [BPT, benzo[b]phenanthro[2,3-d]thiophene], the “Mutagenicity in Salmonella” value (Salmonella) is given as “mutagenic”.

For `O=S1(=O)C=Cc2c1ccc1ccc3ccccc3c21` [P[3,4-b]T sulfone, Phenanthro[3,4-b]thiophene sulfone], the Rev/plate (Salmonella TA104; TA104 +S9, Test 2, 2.5 µg/plate, zero-dose 276/260/270) was 1068/1015, the Rev/plate (Salmonella TA104; TA104 +S9, Test 2, 5 µg/plate, zero-dose 276/260/270) was 1603/1565 and the Rev/plate (Salmonella TA104; TA104 +S9, Test 2, 10 µg/plate, zero-dose 276/260/270) was 1488/1583. For the same molecule, the Rev/plate (Salmonella TA104; TA104 +S9, Test 2, 20 µg/plate, zero-dose 276/260/270) was 706/778, the Rev/plate (Salmonella TA104; TA104 +S9, Test 3, 2.5 µg/plate, zero-dose 402/395/336) was 1027/982 and the Rev/plate (Salmonella TA104; TA104 +S9, Test 3, 5 µg/plate, zero-dose 402/395/336) was 1650/1580. The Rev/plate (Salmonella TA104; TA104 +S9, Test 3, 10 µg/plate, zero-dose 402/395/336) was 1652/1652, the Rev/plate (Salmonella TA104; TA104 +S9, Test 3, 20 µg/plate, zero-dose 402/395/336) was 758/919 and the “Mutagenic potency, Revertants/µg ± S.E., TA104” value (Salmonella TA104; plate-incorporation, +S9) was 262 ± 135 rev/µg. The “Mutagenicity call TA104” value (Salmonella TA104; plate-incorporation, +S9) was “(+) (Called mutagenic (+) based on showing reproducible, dose-related increases in rev/plate that reached or exceeded 2-fold relative to zero-dose controls)”, the Rev/plate (Salmonella TA100; TA100 +S9, Test 3, 0.1 µg/plate, zero-dose 127/118/125) was 239/190 and the Rev/plate (Salmonella TA100; TA100 +S9, Test 3, 0.25 µg/plate, zero-dose 127/118/125) was 368/365. For the same molecule, the Rev/plate (Salmonella TA100; TA100 +S9, Test 3, 0.5 µg/plate, zero-dose 127/118/125) was 681/795, the Rev/plate (Salmonella TA100; TA100 +S9, Test 3, 1 µg/plate, zero-dose 127/118/125) was 1332/1283 and the Rev/plate (Salmonella TA100; TA100 +S9, Test 3, 2.5 µg/plate, zero-dose 127/118/125) was 2801/2710. The Rev/plate (Salmonella TA100; TA100 +S9, Test 3, 5 µg/plate, zero-dose 127/118/125) was 3090/3170, the Rev/plate (Salmonella TA100; TA100 +S9, Test 4, 0.1 µg/plate, zero-dose 112/140/115) was 197/195 and the Rev/plate (Salmonella TA100; TA100 +S9, Test 4, 0.25 µg/plate, zero-dose 112/140/115) was 284/297. The Rev/plate (Salmonella TA100; TA100 +S9, Test 4, 0.5 µg/plate, zero-dose 112/140/115) was 453/514, the Rev/plate (Salmonella TA100; TA100 +S9, Test 4, 1 µg/plate, zero-dose 112/140/115) was 380/383 and the Rev/plate (Salmonella TA100; TA100 +S9, Test 4, 2.5 µg/plate, zero-dose 112/140/115) was 1885 rev/plate. The Rev/plate (Salmonella TA100; TA100 +S9, Test 5, 0.1 µg/plate, zero-dose 102/119/99) was 194/197, the Rev/plate (Salmonella TA100; TA100 +S9, Test 5, 0.25 µg/plate, zero-dose 102/119/99) was 255/245 and the Rev/plate (Salmonella TA100; TA100 +S9, Test 5, 0.5 µg/plate, zero-dose 102/119/99) was 504/448. For the same molecule, the Rev/plate (Salmonella TA100; TA100 +S9, Test 5, 1 µg/plate, zero-dose 102/119/99) was 1037/993, the Rev/plate (Salmonella TA100; TA100 +S9, Test 5, 2.5 µg/plate, zero-dose 102/119/99) was 2935/2875 and the “Mutagenic potency, Revertants/µg ± S.E., TA100” value (Salmonella TA100; plate-incorporation, +S9) was 914 ± 113 rev/µg. The “Mutagenicity call TA100” value (Salmonella TA100; plate-incorporation, +S9) was “(+) (Called mutagenic (+) based on showing reproducible, dose-related increases in rev/plate that reached or exceeded 2-fold relative to zero-dose controls)”, the “Mutagenicity without S9 mix (direct-acting activity)” value (Salmonella TA100; without S9 mix) was “required metabolic activation to be mutagenic” and the “Fold increase in mutant frequency relative to DMSO-treated cells” value (strain TA100; 10 µg/ml) was 17.6 fold. The “Rev/10^6 survivors” value (strain TA100; 10 µg/ml) was 14.1 Rev/10^6 survivors, the Percent survival (strain TA100; 10 µg/ml) was 56% and the “Fold increase in mutant frequency relative to DMSO-treated cells” value (strain TA100; 20 µg/ml) was 62.1 fold. For the same molecule, the “Rev/10^6 survivors” value (strain TA100; 20 µg/ml) was 49.1 Rev/10^6 survivors, the Percent survival (strain TA100; 20 µg/ml) was 37% and the Rev/plate (Salmonella TA98; TA98 +S9, Test 1, 2 µg/plate, zero-dose 33/40/39) was 328 rev/plate. It also gave a Rev/plate (Salmonella TA98; TA98 +S9, Test 1, 5 µg/plate, zero-dose 33/40/39) of 982 rev/plate, a Rev/plate (Salmonella TA98; TA98 +S9, Test 1, 10 µg/plate, zero-dose 33/40/39) of 1373 rev/plate and a Rev/plate (Salmonella TA98; TA98 +S9, Test 1, 20 µg/plate, zero-dose 33/40/39) of 1324 rev/plate. The Rev/plate (Salmonella TA98; TA98 +S9, Test 1, 40 µg/plate, zero-dose 33/40/39) was 1124 rev/plate, the Rev/plate (Salmonella TA98; TA98 +S9, Test 1, 80 µg/plate, zero-dose 33/40/39) was 1268 rev/plate and the Rev/plate (Salmonella TA98; TA98 +S9, Test 2, 0.5 µg/plate, zero-dose 43/41/30) was 41/57. The Rev/plate (Salmonella TA98; TA98 +S9, Test 2, 1 µg/plate, zero-dose 43/41/30) was 63/67, the Rev/plate (Salmonella TA98; TA98 +S9, Test 2, 2.5 µg/plate, zero-dose 43/41/30) was 263/237 and the Rev/plate (Salmonella TA98; TA98 +S9, Test 2, 5 µg/plate, zero-dose 43/41/30) was 765/708. For the same molecule, the Rev/plate (Salmonella TA98; TA98 +S9, Test 3, 0.5 µg/plate, zero-dose 49/50/50) was 56/52, the Rev/plate (Salmonella TA98; TA98 +S9, Test 3, 1 µg/plate, zero-dose 49/50/50) was 124/86 and the Rev/plate (Salmonella TA98; TA98 +S9, Test 3, 2.5 µg/plate, zero-dose 49/50/50) was 293/366. For the same molecule, the Rev/plate (Salmonella TA98; TA98 +S9, Test 3, 5 µg/plate, zero-dose 49/50/50) was 1078/922, the “Mutagenic potency, Revertants/µg ± S.E., TA98” value (Salmonella TA98; plate-incorporation, +S9) was 143 rev/µg and 143 ± 19 rev/µg and the “Mutagenicity call TA98” value (Salmonella TA98; plate-incorporation, +S9) was “(+) (Called mutagenic (+) based on showing reproducible, dose-related increases in rev/plate that reached or exceeded 2-fold relative to zero-dose controls)”. For the same molecule, the “Stable adducts/10^8 nucleotides ± S.E” value ([1]; TA100, 10 µg/ml) was “Not detected”, the “Stable adducts/10^8 nucleotides ± S.E” value ([1]; TA100, 20 µg/ml) was “Not detected” and the “Abasic sites/10^5 nucleotides ± S.E” value ([2]; TA100, 10 µg/ml) was 18.4 ± 0.64 sites/10^5 nucleotides. The “Abasic sites/10^5 nucleotides ± S.E” value ([2]; TA100, 20 µg/ml) was 15.1 ± 0.43 sites/10^5 nucleotides.
